Where a name gives a salt, the structure may show the parent alone.
biological target: human GlyT1c transporter (Homo sapiens (Human), UniProt P48067); assay: Radioligand binding assay using recombinant CHO cell membranes expressing human GlyT1; conditions: human GlyT1c-expressing CHO cell membranes; read-out: radioligand binding Kiapp
Source text: 2. Radioligand binding assays using recombinant CHO cell membranes expressing human GlyT1: […]

human GlyT1c transporter, sequence (P48067 whole entry): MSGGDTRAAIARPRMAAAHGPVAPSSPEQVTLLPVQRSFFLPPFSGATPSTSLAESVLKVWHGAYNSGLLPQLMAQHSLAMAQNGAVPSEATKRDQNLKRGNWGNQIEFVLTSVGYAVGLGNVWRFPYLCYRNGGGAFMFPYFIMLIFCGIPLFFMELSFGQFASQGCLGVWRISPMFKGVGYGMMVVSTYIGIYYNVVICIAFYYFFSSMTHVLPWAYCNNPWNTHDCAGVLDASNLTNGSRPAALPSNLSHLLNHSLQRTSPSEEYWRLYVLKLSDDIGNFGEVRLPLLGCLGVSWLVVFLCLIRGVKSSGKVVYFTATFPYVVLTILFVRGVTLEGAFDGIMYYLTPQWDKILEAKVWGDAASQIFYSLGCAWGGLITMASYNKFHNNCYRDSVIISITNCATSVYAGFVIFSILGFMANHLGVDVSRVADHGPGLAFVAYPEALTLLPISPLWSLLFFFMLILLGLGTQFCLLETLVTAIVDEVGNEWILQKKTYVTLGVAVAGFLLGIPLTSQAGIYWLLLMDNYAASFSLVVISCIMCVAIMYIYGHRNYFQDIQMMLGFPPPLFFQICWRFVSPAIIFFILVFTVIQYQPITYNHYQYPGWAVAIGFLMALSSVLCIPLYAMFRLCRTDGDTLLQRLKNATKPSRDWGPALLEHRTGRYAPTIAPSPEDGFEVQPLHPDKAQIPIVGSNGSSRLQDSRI

SMILES | Ki
Cn1ccc(S(=O)(=O)NCc2ccc3c(c2)C(Cc2ccccc2)C(N2CCC2)CC3)c1 (stereo not shown) [Example 251, N-{[7-(Azetidin-1-yl)-8-benzyl-5,6,7,8-tetrahydronaphthalen-2-yl]methyl}-1-methyl-1H-pyrrole-3-sulfonamide trifluoroacetate] | ≤ 100 nM
NC1CCc2ccc(CCCNS(=O)(=O)CC3CC3)cc2C1Cc1cccc(F)c1 (stereo not shown) [Example 210, N-{3-[7-Amino-8-(3-fluorobenzyl)-5,6,7,8-tetrahydronaphthalen-2-yl]propyl}-1-cyclopropylmethanesulfonamide hydrochloride] | ≤ 100 nM
CCCS(=O)(=O)N1CC(COc2ccc3c(c2)C(Cc2cccc(Cl)c2)C(N)CC3)C1 (stereo not shown) [Example 286, 1-(3-Chloro-benzyl)-7-[1-(propane-1-sulfonyl)-azetidin-3-ylmethoxy]-1,2,3,4-tetrahydronaphthalen-2-ylamine hydrochloride] | ≤ 10000 nM
CCCS(=O)(=O)NCCOc1ccc2c(c1)C(Cc1ccccc1)C(N1CCC1)CC2 (stereo not shown) [Example 148, Propane-1-sulfonic acid [2-(7-azetidin-1-yl-8-benzyl-5,6,7,8-tetrahydro-naphthalen-2-yloxy)-ethyl]-amide] | ≤ 100 nM
NC1CCc2ccc(OCCNS(=O)(=O)CC3CC3)cc2C1Cc1cccc(Cl)c1 (stereo not shown) [Example 288, N-{2-[7-Amino-8-(3-chloro-benzyl)-5,6,7,8-tetrahydro-naphthalen-2-yloxy]-ethyl}-C-cyclopropyl-methanesulfonamide hydrochloride] | ≤ 10 nM
CCOC(=O)NC1CCc2ccc(OCCN(C)S(=O)(=O)CC3CC3)cc2C1Cc1cccc(Cl)c1 (stereo not shown) [Example 290, {1-(3-Chloro-benzyl)-7-[2-(cyclopropylmethanesulfonyl-methyl-amino)-ethoxy]-1,2,3,4-tetrahydro-naphthalen-2-yl}-carbamic acid ethyl ester] | ≤ 10000 nM
CN(CCOc1ccc2c(c1)C(Cc1ccccc1)C(N1CCCC1)CC2)S(=O)(=O)c1cnn(C)c1 (stereo not shown) [Example 111, 1-Methyl-1H-pyrazole-4-sulfonic acid [2-(8-benzyl-7-pyrrolidin-1-yl-5,6,7,8-tetrahydronaphthalen-2-yloxy)-ethyl]-methyl-amide hydrochloride] | ≤ 100 nM
CCCS(=O)(=O)NCCOc1ccc2c(c1)C(Cc1ccccc1Cl)C(N)CC2 (stereo not shown) [Example 293, Propane-1-sulfonic acid {2-[7-amino-8-(2-chloro-benzyl)-5,6,7,8-tetrahydro-naphthalen-2-yloxy]-ethyl}-amide hydrochloride] | ≤ 1000 nM
NC1CCc2ccc(OCCNS(=O)(=O)CC3CC3)cc2C1Cc1cccc(F)c1 (stereo not shown) [Example 235, N-(2-{[7-Amino-8-(3-fluorobenzyl)-5,6,7,8-tetrahydronaphthalen-2-yl]oxy}ethyl)-1-cyclopropylmethanesulfonamide hydrochloride] | ≤ 10 nM
Cn1cnc(S(=O)(=O)NCc2ccc3c(c2)C(Cc2cccc(F)c2)C(N)CC3)c1 (stereo not shown) [Example 177, N-{[7-Amino-8-(3-fluorobenzyl)-5,6,7,8-tetrahydronaphthalen-2-yl]methyl}-1-methyl-1H-imidazole-4-sulfonamide hydrochloride] | ≤ 10 nM
Cc1cccc(S(=O)(=O)NCc2ccc3c(c2)C(Cc2ccccc2)C(N)CC3)c1 (stereo not shown) [Example 179, N-{[7-Amino-8-benzyl-5,6,7,8-tetrahydronaphthalen-2-yl]methyl}-3-methylbenzenesulfonamide hydrochloride] | ≤ 1000 nM
Cn1cc(S(=O)(=O)NCc2ccc3c(c2)C(Cc2cccc(F)c2)C(N)CC3)cn1 (stereo not shown) [Example 178, N-{[7-Amino-8-(3-fluorobenzyl)-5,6,7,8-tetrahydronaphthalen-2-yl]methyl}-1-methyl-1H-pyrazole-4-sulfonamide hydrochloride] | ≤ 10 nM
CCCS(=O)(=O)N1CC(c2ccc3c(c2)C(Cc2cccc(Cl)c2)C(N)CC3)C1 (stereo not shown) [Example 283, 1-(3-Chloro-benzyl)-7-[1-(propane-1-sulfonyl)-azetidin-3-yl]-1,2,3,4-tetrahydro-naphthalen-2-ylamine hydrochloride] | ≤ 1000 nM
CCCS(=O)(=O)NCCCc1ccc2c(c1)C(Cc1ccccc1Cl)C(N)CC2 (stereo not shown) [Example 211, N-{3-[7-Amino-8-(2-chlorobenzyl)-5,6,7,8-tetrahydronaphthalen-2-yl]propyl}propane-1-sulfonamide hydrochloride] | ≤ 1000 nM
CNC1CCc2ccc(OCCNS(=O)(=O)c3cn(C)cn3)cc2C1Cc1ccccc1Cl (stereo not shown) [Example 303, 1-Methyl-1H-imidazole-4-sulfonic acid {2-[8-(2-chloro-benzyl)-7-methylamino-5,6,7,8-tetrahydro-naphthalen-2-yloxy]-ethyl}-amide hydrochloride] | ≤ 100 nM
Cn1cnc(S(=O)(=O)NCc2ccc3c(c2)C(Cc2ccccc2)C(N2CCC2)CC3)c1 (stereo not shown) [Example 248, N-{[7-(Azetidin-1-yl)-8-benzyl-5,6,7,8-tetrahydronaphthalen-2-yl]methyl}-1-methyl-1H-imidazole-4-sulfonamide] | ≤ 10 nM

Next, values leading:

Ki | SMILES
≤ 10 nM | Cn1cnc(S(=O)(=O)NCCOc2ccc3c(c2)C(Cc2cc(F)cc(Cl)c2)C(N)CC3)c1 (stereo not shown) [Example 151, N-(2-{[7-Amino-8-(3-chloro-5-fluorobenzyl)-5,6,7,8-tetrahydronaphthalen-2-yl]oxy}ethyl)-1-methyl-1H-imidazole-4-sulfonamide hydrochloride]
≤ 10 nM | CNC1CCc2ccc(OCCNS(=O)(=O)CC3CC3)cc2C1Cc1cc(F)cc(F)c1 (single isomer, unassigned; enantiomer 2) [Example 244, Enantiomer 2 of 1-cyclopropyl-N-(2-{[8-(3,5-difluorobenzyl)-7-(methylamino)-5,6,7,8-tetrahydronaphthalen-2-yl]oxy}ethylmethanesulfonamide hydrochloride]
≤ 100 nM | CNC1CCc2ccc(OCCNS(=O)(=O)CC3CC3)cc2C1Cc1ccccc1F (stereo not shown) [Example 312, C-Cyclopropyl-N-{2-[8-(2-fluoro-benzyl)-7-methylamino-5,6,7,8-tetrahydro-naphthalen-2-yloxy]-ethyl}-methanesulfonamide hydrochloride]
≤ 1000 nM | CCCS(=O)(=O)NCCCc1ccc2c(c1)C(Cc1ccccc1)C(N1CCCC1)CC2 (stereo not shown) [Example 265, Propane-1-sulfonic acid [3-(8-benzyl-7-pyrrolidin-1-yl-5,6,7,8-tetrahydro-naphthalen-2-yl)propyl]-amide hydrochloride]
≤ 10000 nM | CCCS(=O)(=O)N1CC(COc2ccc3c(c2)C(Cc2cccc(Cl)c2)C(NC(=O)OCC)CC3)C1 (stereo not shown) [Example 285, {1-(3-Chloro-benzyl)-7-[1-(propane-1-sulfonyl)-azetidin-3-ylmethoxy]-1,2,3,4-tetrahydronaphthalen-2-yl}-carbamic acid ethyl ester]
≤ 100 nM | CCCS(=O)(=O)N(CCOc1ccc2c(c1)C(Cc1cccc(Cl)c1)C(N)CC2)C1CC1 (stereo not shown) [Example 281, Propane-1-sulfonic acid {2-[7-amino-8-(3-chloro-benzyl)-5,6,7,8-tetrahydro-naphthalen-2-yloxy]-ethyl}-cyclopropyl-amide hydrochloride]
≤ 100 nM | CCCS(=O)(=O)NCCOc1ccc2c(c1)C(Cc1ccccc1F)C(NC)CC2 (stereo not shown) [Example 311, Propane-1-sulfonic acid {2-[8-(2-fluoro-benzyl)-7-methylamino-5,6,7,8-tetrahydronaphthalen-2-yloxy]-ethyl}-amide hydrochloride]
≤ 10 nM | NC1CCc2ccc(OCCNS(=O)(=O)CC3CC3)cc2C1Cc1ccccc1 (stereo not shown) [Example 121, N-(2-{[7-Amino-8-benzyl-5,6,7,8-tetrahydronaphthalen-2-yl]oxy}ethyl)-1-cyclopropylmethanesulfonamide hydrochloride]
≤ 10 nM | Cn1cnc(S(=O)(=O)NCCOc2ccc3c(c2)C(Cc2cc(F)cc(Cl)c2)C(N2CCC2)CC3)c1 (stereo not shown) [Example 160, N-(2-{[7-(Azetidin-1-yl)-8-(3-chloro-5-fluorobenzyl)-5,6,7,8-tetrahydronaphthalen-2-yl]oxy}ethyl)-1-methyl-1H-imidazole-4-sulfonamide(2E)-but-2-enedioate]
≤ 100 nM | O=S(=O)(CC1CC1)NCCOc1ccc2c(c1)C(Cc1ccc(Cl)c(Cl)c1)C(N1CCC1)CC2 (stereo not shown) [Example 135, N-(2-{[7-(Azetidin-1-yl)-8-(3,4-dichlorobenzyl)-5,6,7,8-tetrahydronaphthalen-2-yl]oxy}ethyl)-1-cyclopropylmethanesulfonamide]
≤ 100 nM | CN(CCOc1ccc2c(c1)C(Cc1ccc(Cl)c(Cl)c1)C(N1CCCC1)CC2)S(=O)(=O)c1cnn(C)c1 (stereo not shown) [Example 89, 1-Methyl-1H-pyrazole-4-sulfonic acid {2-[8-(3,4-dichloro-benzyl)-7-pyrrolidin-1-yl-5,6,7,8-tetrahydro-naphthalen-2-yloxy]-ethyl}-methyl-amide hydrochloride]
≤ 100 nM | CN(CCOc1ccc2c(c1)C(Cc1ccccc1)C(N1CCC1)CC2)S(=O)(=O)c1cnn(C)c1 (stereo not shown) [Example 112, 1-Methyl-1H-pyrazole-4-sulfonic acid [2-(7-azetidin-1-yl-8-benzyl-5,6,7,8-tetrahydronaphthalen-2-yloxy)-ethyl]-methyl-amide hydrochloride]
≤ 100 nM | CNC1CCc2ccc(CCNS(=O)(=O)c3cn(C)cn3)cc2C1Cc1cccc(Cl)c1 (stereo not shown) [Example 313, 1-Methyl-1H-imidazole-4-sulfonic acid {2-[8-(3-chloro-benzyl)-7-methylamino-5,6,7,8-tetrahydro-naphthalen-2-yl]-ethyl}-amide]
≤ 1000 nM | NC1CCc2ccc(OCCNS(=O)(=O)CCC3CC3)cc2C1Cc1ccc(Cl)c(Cl)c1 (stereo not shown) [Example 125, N-(2-{[7-Amino-8-(3,4-dichlorobenzyl)-5,6,7,8-tetrahydronaphthalen-2-yl]oxy}ethyl)-2-cyclopropylethanesulfonamide hydrochloride]
≤ 1000 nM | CCCS(=O)(=O)NCCCc1ccc2c(c1)C(Cc1cccc(Cl)c1)C(N1CCCC1)CC2 (stereo not shown) [Example 264, N-{3-[8-(3-Chlorobenzyl)-7-(pyrrolidin-1-yl)-5,6,7,8-tetrahydronaphthalen-2-yl]propyl}propane-1-sulfonamide hydrochloride]

Reference: patent US9067871B2, “Aminotetraline derivatives, pharmaceutical compositions containing them, and their use in therapy” (ABBVIE DEUTSCHLAND GMBH & CO KG, priority 2009, dated 2015)
